The target of this test is Recombinant full length human PFKFB3 (Homo sapiens, UniProt Q16875). Nature of the test: PFKFB3 kinase activity assay (ADP production, ADP-Glo). In general terms: In ADP-Glo the light output rises with the ADP produced.
Chain of Recombinant full length human PFKFB3 (Q16875 whole entry): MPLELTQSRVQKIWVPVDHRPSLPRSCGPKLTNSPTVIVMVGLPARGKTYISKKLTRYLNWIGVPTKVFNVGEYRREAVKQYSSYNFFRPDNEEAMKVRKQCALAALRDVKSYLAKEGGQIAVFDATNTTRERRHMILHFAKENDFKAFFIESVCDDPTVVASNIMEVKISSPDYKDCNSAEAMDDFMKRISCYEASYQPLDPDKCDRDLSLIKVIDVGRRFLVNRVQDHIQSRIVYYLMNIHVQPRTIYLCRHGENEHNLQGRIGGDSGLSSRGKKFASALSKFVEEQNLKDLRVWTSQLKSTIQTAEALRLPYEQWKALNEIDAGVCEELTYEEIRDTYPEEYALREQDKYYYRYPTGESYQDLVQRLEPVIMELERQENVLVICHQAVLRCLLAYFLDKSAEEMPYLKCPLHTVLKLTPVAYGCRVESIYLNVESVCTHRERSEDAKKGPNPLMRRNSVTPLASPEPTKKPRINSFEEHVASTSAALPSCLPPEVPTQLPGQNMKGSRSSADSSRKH
Method: Recombinant full length human PFKFB3 (or PFKFB4) protein purified from Sf9 baculoviral system was acquired from SignalChem (Cat. #P323-30G or P324-30G). ATP, Fructose-6-Phosphate and other chemicals were from Sigma-Aldrich. The kinase activity of the PFKFB3 (PFKFB4) protein was detected by measuring production of ADP from ATP in the presence of the Fructose-6-Phosphate substrate. The kinase reactions were assembled in 384 well plates in a total volume of 25 μL. Test compounds were serially diluted in DMSO. Reactions were set up by first mixing test compounds with enzyme and pre-incubating for 15 min. The ATP and Fructose-6-Phosphate substrates were next added to initiate the kinase reactions.
The compounds of invention listed below in this example were tested at various concentrations (which also added 1% DMSO from compounds, to the final solution) as described below. The kinase reactions were allowed to proceed for 1 h at room temperature. Aliquots of the reaction mixtures (5 μL) were transferred to fresh white 384 well plates and mixed with 5 μL of the ADP-Glo reagent (Promega), followed by incubation for 30 min. The luminescent Kinase Detection reagent was added (10 μL) and, following additional incubation for 15 min, the plates were read on luminescence plate reader (Analyst HT). Positive (100%-inhibition) and negative (0%-inhibition) control samples were assembled in each assay plate and were used to calculate percent inhibition values of test compounds. All experiments were performed in duplicate.
On to `O=C(O)c1cc(C(=O)Nc2cc(-c3ccc(F)c(F)c3)ccc2C(=O)O)c(C(=O)O)cc1Cl` [Example 46, 2-({4-carboxy-3′,4′-difluoro-[1,1′-biphenyl]-3-yl}carbamoyl)-5-chlorobenzene-1,4-dicarboxylic acid], for which the half-inhibitory concentration (IC50) is less than 500 nM.

With `CS(=O)(=O)Nc1ccc2c(c1)C(=O)N(c1cc(-c3ccc(F)c(F)c3)ccc1C(=O)O)C2` [Compound 131, 3′,4′-Difluoro-3-(6-methanesulfonylamino-1-oxo-1,3-dihydro-isoindol-2-yl)-biphenyl-4-carboxylic Acid], the IC50 is less than 20000 nM.

`O=C(O)c1cc(C(=O)O)c(C(=O)Nc2cc(-c3ccc(Cl)cc3Cl)ccc2C(=O)O)cc1O` [Example 43, 4-({4-carboxy-2′,4′-dichloro-[1,1′-biphenyl]-3-yl}carbamoyl)-6-hydroxybenzene-1,3-dicarboxylic acid]: the IC50 is less than 500 nM.

On to `O=C(O)c1cc(-c2cn[nH]c2)ccc1N1C(=O)c2ccc(-c3c[nH]nn3)cc2C1=O` [Compound 71, 2-[1,3-Dioxo-5-(1H-[1,2,3]triazol-4-yl)-1,3-dihydroisoindol-2-yl]-5-(1H-pyrazol-4-yl)-benzoic Acid], for which the IC50 lay in the range of 500 to 2000 nM.

On to `CCOC(=O)c1ccc(-c2ccc(Cl)cc2Cl)cc1NC(=O)c1cc(C(=O)O)c(O)cc1C(=O)O` [Example 60, 2-{[2′,4′-dichloro-4-(ethoxycarbonyl)-[1,1′-biphenyl]-3-yl]carbamoyl}-5-hydroxybenzene-1,4-dicarboxylic acid], for which the IC50 was less than 500 nM.

Take `O=C(O)c1ccc2c(c1)C(=O)N(c1cc(-c3ccc(F)cc3)ccc1C(=O)O)C2=O` [Example 45]: the IC50 is less than 500 nM.

Take `O=C(O)c1ccc2c(c1)C(=O)N(c1cc(-c3cccs3)ccc1C(=O)O)C2=O` [Example 48, 2-(2-Carboxy-5-thiophen-2-yl-phenyl)-1,3-dioxo-2,3-dihydro-1H-isoindole-5-carboxylic Acid]: the half-maximal inhibitory concentration (IC50) is less than 500 nM.

Turning to `O=C(O)c1ccc(C(=O)Nc2ncc([N+](=O)[O-])s2)c(C(=O)O)c1` [Example 38, 4-[(5-nitro-1,3-thiazol-2-yl)carbamoyl]benzene-1,3-dicarboxylic acid], the half-maximal inhibitory concentration (IC50) was less than 500 nM.

Take `COc1ccc(-c2c(C)sc(NC(=O)c3ccc(-c4c[nH]nn4)cc3C(N)=O)c2C#N)cc1` [Example 8, N1-[3-cyano-4-(4-methoxyphenyl)-5-methylthiophen-2-yl]-4-(2H-1,2,3-triazol-4-yl)benzene-1,2-dicarboxamide]: the half-maximal inhibitory concentration (IC50) lay within 5000 to 20000 nM.

On to `O=C(O)c1ccc2c(c1)C(=O)N(c1cc(-c3cccc(F)c3)ccc1C(=O)O)C2=O` [Example 46], for which the concentration for half-maximal inhibition (IC50) was less than 500 nM.

In the case of `O=C(O)c1ccc(-c2ccc(F)c(F)c2)cc1N1Cc2ccc(-c3c[nH]nn3)cc2C1=O` [Compound 111, 3′,4′-Difluoro-3-[1-oxo-6-(1H-[1,2,3]triazol-4-yl)-1,3-dihydroisoindol-2-yl]biphenyl-4-carboxylic Acid], the IC50 was less than 500 nM.

On to `CC(=O)OCCOC(=O)c1ccc(-c2ccc(F)c(F)c2)cc1N1C(=O)c2ccc(-c3cnn[nH]3)cc2C1=O` [compound 168, 2-(acetyloxy)ethyl 3-[1,3-dioxo-5-(1H-1,2,3-triazol-5-yl)-2,3-dihydro-1H-isoindol-2-yl]-3′,4′-difluoro[1,1′-biphenyl]-4-carboxylate], for which the 50% inhibitory concentration (IC50) was less than 20000 nM.

As to `NCCOC(=O)c1ccc(-c2ccccc2)cc1N1C(=O)c2ccc(-c3c[nH]nn3)cc2C1=O` [Compound 72, 3-[1,3-Dioxo-5-(1H-[1,2,3]triazol-4-yl)-1,3-dihydroisoindol-2-yl]biphenyl-4-carboxylic Acid 2-amino-ethyl ester], the IC50 is less than 20000 nM.

For `CN1CCN(CCOC(=O)c2ccc(-c3ccc(F)c(F)c3)cc2N2Cc3ccc(CO)cc3C2=O)CC1` [compound 155, 2-(4-methylpiperazin-1-yl)ethyl 3′,4′-difluoro-3-(6-(hydroxymethyl)-1-oxoisoindolin-2-yl)biphenyl-4-carboxylate], the IC50 is less than 20000 nM.

Take `CN(C)CCCOC(=O)c1ccc(-c2ccc(F)c(F)c2)cc1N1Cc2ccc(C(=O)NS(C)(=O)=O)cc2C1=O` [Compound 124, 3′,4′-Difluoro-3-(6-methanesulfonylaminocarbonyl-1-oxo-1,3-dihydro-isoindol-2-yl)-biphenyl-4-carboxylic acid 3-dimethylamino-propyl ester]: the IC50 was less than 20000 nM.

On to `CC1(C)CCN(c2ccc(C(=O)O)c(NC(=O)c3cc(O)c(C(=O)O)cc3C(=O)O)c2)CC1` [Example 53, 4-{[2-carboxy-5-(4,4-dimethylpiperidin-1-yl)phenyl]carbamoyl}-6-hydroxybenzene-1,3-dicarboxylic acid], for which the IC50 was less than 500 nM.

With `COc1ccc(-c2ccc(C(=O)O)c(N3C(=O)c4ccc(C(=O)O)cc4C3=O)c2)cc1F` [Compound 144, 2-(4-Carboxy-3′-fluoro-4′-methoxy[1,1′-biphenyl]-3-yl)-1,3-dioxo-2,3-dihydro-1H-isoindole-5-carboxylic acid], the IC50 was less than 500 nM.

On to `Cc1oc(=O)oc1COC(=O)c1ccc(-c2ccc(F)c(F)c2)cc1N1Cc2ccc(-c3c[nH]nn3)cc2C1=O` [Compound 116, 3′,4′-Difluoro-3-[1-oxo-6-(1H-[1,2,3]triazol-4-yl)-1,3-dihydro-isoindol-2-yl]-biphenyl-4-carboxylic acid (5-methyl-2-oxo-[1,3]dioxol-4-yl)methyl ester], for which the half-inhibitory concentration (IC50) was 5000 to 20000 nM.

With `O=C(O)c1cc(-c2cnn[nH]2)ccc1CNc1cc(-c2ccc(F)c(F)c2)ccc1C(=O)O` [Example 6, 3-({[2-carboxy-4-(2H-1,2,3-triazol-4-yl)phenyl]methyl}amino)-3′,4′-difluoro-[1,1′-biphenyl]-4-carboxylic acid], the IC50 was less than 500 nM.

Take `N#Cc1cc(-c2ccccc2)ccc1N1C(=O)c2ccc(C(=O)O)cc2C1=O` [compound 145, 2-(3-cyanobiphenyl-4-yl)-1,3-dioxoisoindoline-5-carboxylic acid]: the IC50 is less than 20000 nM.

As to `O=C(O)c1ccc2c(c1)C(=O)N(c1ccc(-c3c[nH]cn3)cc1C(=O)O)C2=O` [Compound 75, 2-[2-Carboxy-4-(1H-imidazol-4-yl)-phenyl]-1,3-dioxo-2,3-dihydro-1H-isoindole-5-carboxylic Acid], the 50% inhibitory concentration (IC50) is less than 500 nM.

Consider `COC(=O)c1ccc(-c2ccc(F)c(F)c2)cc1N1Cc2ccc(-c3c[nH]nn3)cc2C1=O` [Compound 110, 3′,4′-Difluoro-3-[1-oxo-6-(1H-[1,2,3]triazol-4-yl)-1,3-dihydroisoindol-2-yl]biphenyl-4-carboxylic acid methyl ester], for which the IC50 was less than 20000 nM.

Turning to `O=C(O)c1cc(C(=O)O)c(C(=O)Nc2cc(-c3ccc(F)c(F)c3)ccc2C(=O)O)cc1O` [Example 16, 4-({4-carboxy-3′,4′-difluoro-[1,1′-biphenyl]-3-yl}carbamoyl)-6-hydroxybenzene-1,3-dicarboxylic acid], the IC50 was less than 20000 nM.

Consider `COC(=O)c1cc(-c2ccccc2)ccc1N1C(=O)c2ccc(C(=O)O)cc2C1=O` [Example 12, 2-(3-Methoxycarbonylbiphenyl-4-yl)-1,3-dioxo-2,3-dihydro-1H-isoindole-5-carboxylic acid], for which the IC50 was in the range of 2000 to 5000 nM.

What is called IC50 is the concentration that gives 50% inhibition.
